Assays:
HLA-B*44 = test: MHC binding assay (UV-ligand exchange, β2m ELISA); parameters: species or system human; conditions: UV-ligand exchange, β2m ELISA
CD8+ T cells = test: In vitro T-cell priming assay with aAPCs (in vitro immunogenicity for MHC class I presented peptides); format: cell-based, human; conditions: in vitro immunogenicity, HLA B*07
HLA-B*07 = HLA-B*07 (Homo sapiens, UniProt P01889); test: MHC binding assay (UV-ligand exchange, β2m ELISA)
Text: Candidate peptides for T cell based therapies according to the present invention were further tested for their MHC binding capacity (affinity). The individual peptide-MHC complexes were produced by UV-ligand exchange, where a UV-sensitive peptide is cleaved upon UV-irradiation, and exchanged with the peptide of interest as analyzed. Only peptide candidates that can effectively bind and stabilize the peptide-receptive MHC molecules prevent dissociation of the MHC complexes. To determine the yield of the exchange reaction, an ELISA was performed based on the detection of the light chain (β2m) of stabilized MHC complexes. The assay was performed as generally described in Rodenko et al. (Rodenko et al., 2006).
96 well MAXISorp plates (NUNC) were coated over night with 2 ug/ml streptavidin in PBS at room temperature, washed 4× and blocked for 1 h at 37° C. in 2% BSA containing blocking buffer. […] Peptide-MHC monomers of the UV-exchange reaction were diluted 100-fold in blocking buffer. Samples were incubated for 1 h at 37° C., washed four times, incubated with 2 ug/ml HRP conjugated anti-β2m for 1h at 37° C., washed again and detected with TMB solution that is stopped with […]. Absorption was measured at 450 nm. Candidate peptides that show a high exchange yield (preferably higher than 50%, most preferred higher than 75%) are generally preferred for a generation and production of antibodies or fragments thereof, and/or T cell receptors or fragments thereof, as they show sufficient avidity to the MHC molecules and prevent dissociation of the MHC complexes.

Row | Substance | Peptide exchange (peptide exchange yield, MHC class I binding score) (HLA-B*44) | Peptide exchange (peptide exchange yield, MHC class I binding score) (HLA-B*07) | Wells positive [%] (CD8+ T cells)
1 | 244 (FPYVRDFVM; listed as Homo sapiens) [compound 244] | – | “++++” (>75% = ++++) | “+” (<20% = +)
2 | 248 (IPNWARQDL; listed as Homo sapiens) [compound 248] | – | “++++” (>75% = ++++) | “++++” (>=70% = ++++)
3 | 221 (VPDVAQFVL; listed as Homo sapiens) [compound 221] | – | “++++” (>75% = ++++) | “++” (20%-49% = ++)
4 | 233 (KPYQGNPTF; listed as Homo sapiens) [compound 233] | – | “++++” (>75% = ++++) | “+” (<20% = +)
5 | 224 (GPQPWHAAL; listed as Homo sapiens) [compound 224] | – | “++++” (>75% = ++++) | “++” (20%-49% = ++)
6 | 225 (LPFDGPGGIL; listed as Homo sapiens) [compound 225] | – | “++++” (>75% = ++++) | “++++” (>=70% = ++++)
7 | 237 (RPAATAVISL; listed as Homo sapiens) [compound 237] | – | “+++” (>50 = +++) | “+” (<20% = +)
8 | 231 (RPRALRDLQL; listed as Homo sapiens) [compound 231] | – | “++++” (>75% = ++++) | “++” (20%-49% = ++)
9 | 242 (SPRWLPVSL; listed as Homo sapiens) [compound 242] | – | “++++” (>75% = ++++) | “++++” (>=70% = ++++)
10 | 274 (TPYQEHVAL; listed as Homo sapiens) [compound 274] | – | “+++” (>50 = +++) | “+” (<20% = +)
11 | 232 (RPRALRDLQLL; listed as Homo sapiens) [compound 232] | – | “++++” (>75% = ++++) | “+++” (50%-69% = +++)
12 | 245 (RIREHVPQL; listed as Homo sapiens) [compound 245] | – | “+++” (>50 = +++) | “++” (20%-49% = ++)
13 | 250 (SPRDFLSGL; listed as Homo sapiens) [compound 250] | – | “++++” (>75% = ++++) | “+” (<20% = +)
14 | 241 (SARLATDAL; listed as Homo sapiens) [compound 241] | – | “++++” (>75% = ++++) | “+++” (50%-69% = +++)
15 | 220 (SPSVSQLSVL; listed as Homo sapiens) [compound 220] | – | “++++” (>75% = ++++) | “++++” (>=70% = ++++)
16 | 223 (YPKDIYSSF; listed as Homo sapiens) [compound 223] | – | “++++” (>75% = ++++) | “++” (20%-49% = ++)
17 | 249 (VPSSRILQL; listed as Homo sapiens) [compound 249] | – | “++++” (>75% = ++++) | “+++” (50%-69% = +++)
18 | 252 (SPDIRNTTV; listed as Homo sapiens) [compound 252] | – | “++++” (>75% = ++++) | “+” (<20% = +)
19 | 228 (YPRGNHWAVGHL; listed as Homo sapiens) [compound 228] | – | “++++” (>75% = ++++) | “++” (20%-49% = ++)
20 | 222 (NPFYPEVEL; listed as Homo sapiens) [compound 222] | – | “+++” (>50 = +++) | “+” (<20% = +)
21 | 238 (KPGPPWAAF; listed as Homo sapiens) [compound 238] | – | “++++” (>75% = ++++) | –
22 | 263 (HPAPYGDLL; listed as Homo sapiens) [compound 263] | – | “++++” (>75% = ++++) | –
23 | 226 (SPRMSGLLSQT; listed as Homo sapiens) [compound 226] | – | “++++” (>75% = ++++) | “+++” (50%-69% = +++)

The next lines start with results.

Row | Peptide exchange (peptide exchange yield, MHC class I binding score) (HLA-B*44) | Peptide exchange (peptide exchange yield, MHC class I binding score) (HLA-B*07) | Substance | Wells positive [%] (CD8+ T cells)
24 | “++” (>20% = ++) | – | 336 (ASSSGPMRWW; listed as Homo sapiens) [compound 336] | –
25 | “+++” (>50 =+++) | – | 350 (GECDVFKEIL; listed as Homo sapiens) [compound 350] | –
26 | “+++” (>50 =+++) | – | 324 (TDSIHAWTF; listed as Homo sapiens) [compound 324] | –
27 | “+++” (>50 =+++) | – | 478 (SEIEQEIGSL; listed as Homo sapiens) [compound 478] | –
28 | – | “++++” (>75% = ++++) | 473 (LPRALLSSL; listed as Homo sapiens) [compound 473] | “++” (20%-49% = ++)
29 | – | “++++” (>75% = ++++) | 294 (GPTPNTGAAL; listed as Homo sapiens) [compound 294] | “+++” (50%-69% = +++)
30 | “++” (>20% = ++) | – | 366 (AENLFRAF; listed as Homo sapiens) [compound 366] | –
31 | “+++” (>50 =+++) | – | 369 (EEIERFFKL; listed as Homo sapiens) [compound 369] | –
32 | “+++” (>50 =+++) | – | 363 (AELDKLTSV; listed as Homo sapiens) [compound 363] | –
33 | “++” (>20% = ++) | – | 372 (TEGIIMKDF; listed as Homo sapiens) [compound 372] | –
34 | “+++” (>50 =+++) | – | 354 (TEDPTILRI; listed as Homo sapiens) [compound 354] | –
35 | “++++” (>75% = ++++) | – | 358 (KEADIHFLI; listed as Homo sapiens) [compound 358] | –
36 | “+++” (>50 =+++) | – | 351 (EEVNYINTF; listed as Homo sapiens) [compound 351] | –
37 | “+++” (>50 =+++) | – | 483 (EENDQSTHKW; listed as Homo sapiens) [compound 483] | –
38 | “+++” (>50 =+++) | – | 479 (AEIQPQTQV; listed as Homo sapiens) [compound 479] | –
39 | “++” (>20% = ++) | – | 488 (TEFPIIKMY; listed as Homo sapiens) [compound 488] | –
40 | “++++” (>75% = ++++) | – | 319 (AEMLERVIKNY; listed as Homo sapiens) [compound 319] | –
41 | “++++” (>75% = ++++) | – | 352 (NEVLTYIKF; listed as Homo sapiens) [compound 352] | –
42 | “+++” (>50 =+++) | – | 327 (YEIEARNQVF; listed as Homo sapiens) [compound 327] | –
43 | – | “++++” (>75% = ++++) | 293 (RPRSALPRLLLP; listed as Homo sapiens) [compound 293] | “++” (20%-49% = ++)
44 | – | “++++” (>75% = ++++) | 462 (RPFHTRATV; listed as Homo sapiens) [compound 462] | “++” (20%-49% = ++)
45 | – | “++++” (>75% = ++++) | 285 (FPSFLTNSL; listed as Homo sapiens) [compound 285] | “++++” (>=70% = ++++)
46 | – | “++++” (>75% = ++++) | 463 (TPKAGPTL; listed as Homo sapiens) [compound 463] | “+” (<20% = +)
47 | – | “++++” (>75% = ++++) | 460 (MPMAGDMNGL; listed as Homo sapiens) [compound 460] | “++” (20%-49% = ++)
48 | – | “++++” (>75% = ++++) | 474 (LPRLLPAL; listed as Homo sapiens) [compound 474] | “+++” (50%-69% = +++)
49 | – | “+++” (>50 = +++) | 292 (SPQRLRGLLL; listed as Homo sapiens) [compound 292] | “+++” (50%-69% = +++)
50 | – | “++++” (>75% = ++++) | 283 (RPHSLSSEL; listed as Homo sapiens) [compound 283] | –
51 | – | “++++” (>75% = ++++) | 290 (APYRPPDISL; listed as Homo sapiens) [compound 290] | –
52 | – | “++++” (>75% = ++++) | 472 (NPRATDAQL; listed as Homo sapiens) [compound 472] | –

From patent US11292821B2, “Peptides and combination of peptides for use in immunotherapy against lung cancer, including NSCLC, SCLC and other cancers” (Immatics Biotechnologies GmbH, priority 2017, dated 2022)
